{
  "source": "patent US20100087516A1",
  "about": "“ANTIBACTERIAL MACROLACTIN A THAT BACILLUS POLYFERMENTICUS KJS-2 PRODUCED IN” (priority 2007, published 2010)",
  "key": {"Heat and pH stability": {"experiment": "Heat and pH stability", "format": "physicochemical"}, "[1]": {"tested_on": "a variety of microorganisms and fungi", "experiment": "Spectrum of antibiotic activity (general statement)", "format": "cell-based"}, "[2]": {"tested_on": "Vancomycin-resistant enterococci", "experiment": "Inhibitory effect on VRE in liquid medium", "format": "cell-based", "conditions": "for average absorbance (OD), Macrolactin A addition group: Average of 11 VRE strains", "description": "For the experiment with VRE, the strains were inoculated into a liquid medium upto a concentration of 1,000,000 cfu/mL and cultured either with (for strains to be tested) or without (for controls) Macrolactin A. […] […] After 4 hours of culture, the average absorbance of the control group was 0.76, while that of the group cultured with Macrolactin A was 0.19, showing significant difference between the two groups."}, "Herpes simplex": {"tested_on": "Herpes simplex", "conditions": "cited from earlier work"}, "[3]": {"tested_on": "B16-F10 murine melanoma cancer cell", "conditions": "cited from earlier work"}, "Saccharomyces cerevisiae": {"tested_on": "Saccharomyces cerevisiae", "experiment": "Bioassay of Macrolactin A on TSB agar medium", "format": "cell-based", "conditions": "10 μl of solution in 50% acetone (2.5 mg/ml)", "description": "(§1) The strains used for the experiment were Saccharomyces cerevisiae, Vibrio vulnificus, Micrococcus luteus and Streptococcus parauberis. Each strain, except Vibrio vulnificus, was inoculated and cultured in TSB medium at 200 rpm for 16 hours at 37° C., and then a 0.5 ml (approximately 28*10^9 cfu/ml) aliquot of the culture medium was spread over TSB agar medium. Vibrio vulnificus, was inoculated and cultured in TSB medium at 200 rpm for 16 hours at 25° C., which is its optimum growth conation, and then the amount of the culture medium was spread over the agar medium. The solvent required for the bioassay is a solvent, which can dissolve Macrolactin A, that has no toxicity against the strains used for the experiment."}, "Micrococcus luteus": {"tested_on": "Micrococcus luteus", "experiment": "Bioassay of Macrolactin A on TSB agar medium", "format": "cell-based", "conditions": "10 μl of solution in 50% acetone (2.5 mg/ml)", "description": "as §1"}, "Streptococcus parauberis": {"tested_on": "Streptococcus parauberis", "experiment": "Bioassay of Macrolactin A on TSB agar medium", "format": "cell-based", "conditions": "10 μl of solution in 50% acetone (2.5 mg/ml)", "description": "as §1"}, "Vibrio vulnificus": {"tested_on": "Vibrio vulnificus", "experiment": "Bioassay of Macrolactin A on TSB agar medium", "format": "cell-based", "conditions": "10 μl of solution in 50% acetone (2.5 mg/ml)", "description": "as §1"}, "[4]": {"tested_on": "biosynthesis of cholesterol", "conditions": "cited from earlier work"}, "HIV": {"tested_on": "HIV", "conditions": "cited from earlier work"}, "Bacillus subtilis 168": {"tested_on": "Bacillus subtilis 168", "experiment": "Antibiotic activity test of HPLC fractions of the culture medium", "format": "cell-based", "description": "(§2) In order to purify the antibiotic substance produced by strain Bacillus polyfermenticus KJS-2, the seed culture of the strain was diluted into 3 L of TSB medium (TSB agar: Tryptone 17 g, Soytone 3 g, Dextrose 2.5 g, NaCl 5 g, Dipotassium Phosphate 2.5 g, pH 6.8 to 72 to a final concentration of 4% and was cultured for 2.5 days (30° C., 200 rpm, 1 vvm, pH6.8). The culture medium was extracted with […] and analyzed by HPLC under the conditions using a solvent of Step 2 of Example 1, and each peak was fractionated as in FIG. 4. Each fraction was tested for antibiotic activity against Escherichia coli, Bacillus subtilis 168 and Vancomycin-resistant Enterococci. […] FIG. 5 below is the analysis of fraction 1 of FIG. 4 by LC/Mass under the same conditions of Step 2 of Example 1, and the purification was to a purity of 94.63%."}, "Escherichia coli": {"tested_on": "Escherichia coli", "experiment": "Antibiotic activity test of HPLC fractions of the culture medium", "format": "cell-based", "description": "as §2"}, "[5]": {"tested_on": "Vancomycin-resistant Enterococci", "experiment": "Antibiotic activity test of HPLC fractions of the culture medium", "format": "cell-based", "description": "as §2"}, "Burkholderia cepacia": {"tested_on": "Burkholderia cepacia", "conditions": "cited from earlier work"}, "VRE5": {"tested_on": "VRE5", "experiment": "Bioassay at a gradient of concentration on TSB agar medium", "format": "cell-based, vancomycin-resistant enterococci", "conditions": "10 μl of solution in 50% acetone"}, "[6]": {"tested_on": "methicillin-resistant Staphylococcus aureu (MRSA)", "conditions": "cited from earlier work"}},
  "note": "Like-named read-outs stand apart in the source and are kept apart here.",
  "data": [
    {"smiles": "CC1CCC/C=C/C=C/C(O)CC(O)C/C=C\\C=C\\C(O)C/C=C/C=C\\C(=O)O1", "note": "(stereo not drawn) [Macrolactin A]", "values": [
      {"measurement": "heat stability", "setting": "Heat and pH stability", "value": "excellent heat stability"},
      {"measurement": "stability in weak acidic and neutral environments", "setting": "Heat and pH stability; weak acidic and neutral environments", "value": "very stable"},
      {"measurement": "spectrum of antibiotic activity", "setting": "[1]", "value": "broad spectrum of antibiotic activity"},
      {"measurement": "average absorbance (OD), Macrolactin A addition group", "setting": "[2]; culture 4 hours, 50 μg/mL", "value": 0.19, "unit": "OD"},
      {"measurement": "average absorbance (OD), Macrolactin A addition group", "setting": "[2]; culture 6 hours, 50 μg/mL", "value": 0.26, "unit": "OD"},
      {"measurement": "OD, Macrolactin A addition group", "setting": "[2]; VRE1, culture 4 hours, 50 μg/mL", "value": 0.216, "unit": "OD"},
      {"measurement": "OD, Macrolactin A addition group", "setting": "[2]; VRE1, culture 6 hours, 50 μg/mL", "value": 0.207, "unit": "OD"},
      {"measurement": "OD, Macrolactin A addition group", "setting": "[2]; VRE2, culture 4 hours, 50 μg/mL", "value": 0.279, "unit": "OD"},
      {"measurement": "OD, Macrolactin A addition group", "setting": "[2]; VRE2, culture 6 hours, 50 μg/mL", "value": 0.391, "unit": "OD"},
      {"measurement": "OD, Macrolactin A addition group", "setting": "[2]; VRE3, culture 4 hours, 50 μg/mL", "value": 0.240, "unit": "OD"},
      {"measurement": "OD, Macrolactin A addition group", "setting": "[2]; VRE3, culture 6 hours, 50 μg/mL", "value": 0.314, "unit": "OD"},
      {"measurement": "OD, Macrolactin A addition group", "setting": "[2]; VRE4, culture 4 hours, 50 μg/mL", "value": 0.166, "unit": "OD"},
      {"measurement": "OD, Macrolactin A addition group", "setting": "[2]; VRE4, culture 6 hours, 50 μg/mL", "value": 0.180, "unit": "OD"},
      {"measurement": "OD, Macrolactin A addition group", "setting": "[2]; VRE5, culture 4 hours, 50 μg/mL", "value": 0.176, "unit": "OD"},
      {"measurement": "OD, Macrolactin A addition group", "setting": "[2]; VRE5, culture 6 hours, 50 μg/mL", "value": 0.153, "unit": "OD"},
      {"measurement": "OD, Macrolactin A addition group", "setting": "[2]; VRE6, culture 4 hours, 50 μg/mL", "value": 0.171, "unit": "OD"},
      {"measurement": "OD, Macrolactin A addition group", "setting": "[2]; VRE6, culture 6 hours, 50 μg/mL", "value": 0.179, "unit": "OD"},
      {"measurement": "OD, Macrolactin A addition group", "setting": "[2]; VRE7, culture 4 hours, 50 μg/mL", "value": 0.173, "unit": "OD"},
      {"measurement": "OD, Macrolactin A addition group", "setting": "[2]; VRE7, culture 6 hours, 50 μg/mL", "value": 0.133, "unit": "OD"},
      {"measurement": "OD, Macrolactin A addition group", "setting": "[2]; VRE8, culture 4 hours, 50 μg/mL", "value": 0.228, "unit": "OD"},
      {"measurement": "OD, Macrolactin A addition group", "setting": "[2]; VRE8, culture 6 hours, 50 μg/mL", "value": 0.589, "unit": "OD"},
      {"measurement": "growth of VRE8 and VRE11 in liquid medium", "setting": "[2]; VRE8 and VRE11, 50 μg/mL, lower sensitivity than the other strains", "value": "notable growth retardation"},
      {"measurement": "OD, Macrolactin A addition group", "setting": "[2]; VRE11, culture 4 hours, 50 μg/mL", "value": 0.236, "unit": "OD"},
      {"measurement": "OD, Macrolactin A addition group", "setting": "[2]; VRE11, culture 6 hours, 50 μg/mL", "value": 0.507, "unit": "OD"},
      {"measurement": "OD, Macrolactin A addition group", "setting": "[2]; VRE14, culture 4 hours, 50 μg/mL", "value": 0.078, "unit": "OD"},
      {"measurement": "OD, Macrolactin A addition group", "setting": "[2]; VRE14, culture 6 hours, 50 μg/mL", "value": 0.050, "unit": "OD"},
      {"measurement": "OD, Macrolactin A addition group", "setting": "[2]; VRE15, culture 4 hours, 50 μg/mL", "value": 0.145, "unit": "OD"},
      {"measurement": "OD, Macrolactin A addition group", "setting": "[2]; VRE15, culture 6 hours, 50 μg/mL", "value": 0.131, "unit": "OD"},
      {"measurement": "growth of VRE strains in liquid medium", "setting": "[2]; nine out of eleven strains tested, 50 μg/mL", "value": "remarkable growth inhibition"},
      {"measurement": "antiviral activity against Herpes simplex", "setting": "Herpes simplex", "value": "antiviral activity"},
      {"measurement": "cytotoxicity on the B16-F10 murine melanoma cancer cell", "setting": "[3]", "value": "shows cytotoxicity"},
      {"measurement": "antibiotic activity against Saccharomyces cerevisiae", "setting": "Saccharomyces cerevisiae", "value": "excellent antibiotic activity"},
      {"measurement": "antibiotic activity against Micrococcus luteus", "setting": "Micrococcus luteus", "value": "excellent antibiotic activity"},
      {"measurement": "antibiotic activity against Streptococcus parauberis", "setting": "Streptococcus parauberis", "value": "excellent antibiotic activity"},
      {"measurement": "antibiotic activity against Vibrio vulnificus", "setting": "Vibrio vulnificus", "value": "excellent antibiotic activity"},
      {"measurement": "inhibitory effect on the biosynthesis of cholesterol", "setting": "[4]", "value": "inhibitory effect"},
      {"measurement": "antiviral activity against HIV", "setting": "HIV", "value": "antiviral activity"},
      {"measurement": "antibiotic activity against Bacillus subtilis 168", "setting": "Bacillus subtilis 168", "value": "excellent antibiotic activity"},
      {"measurement": "antibiotic activity against Bacillus subtilis 168", "setting": "Bacillus subtilis 168; listed as fraction 1", "value": "had antibiotic activity"},
      {"measurement": "antibiotic activity against Escherichia coli", "setting": "Escherichia coli", "value": "excellent antibiotic activity"},
      {"measurement": "antibiotic activity against Escherichia coli", "setting": "Escherichia coli; listed as fraction 1", "value": "had antibiotic activity"},
      {"measurement": "antibiotic activity against Vancomycin-resistant Enterococci", "setting": "[5]", "value": "showed antibiotic activity"},
      {"measurement": "antibiotic activity against Burkholderia cepacia", "setting": "Burkholderia cepacia", "value": "antibiotic activity only against MRSA"},
      {"measurement": "concentration of solution that inhibits VRE5 on TSB agar medium", "setting": "VRE5", "value": "above 1.25 mg/ml"},
      {"measurement": "antibiotic activity against MRSA", "setting": "[6]", "value": "antibiotic activity only against MRSA"}
    ]}
  ]
}
